These results are taken from patent US12660819B2, “Herbicidal derivatives” (SYNGENTA CROP PROTECTION AG, priority 2020, dated 2026).

Common to all, as to format: in vivo
Experiment [1] has as its system Setaria faberi (SETFA). Kind of experiment: Pre-emergence Test (glasshouse, percentage damage to the plant). To be noted: 1000 g/ha unless otherwise stated, five-point scale.
Experiment [2] has as its system Echinochloa crus-galli (ECHCG). The experiment is described as above. To be noted: 1000 g/ha unless otherwise stated, five-point scale.
In experiment [3] the test system is Lolium perenne (LOLPE). The experiment is described as above. The following applies: 1000 g/ha unless otherwise stated, five-point scale.
The test system of experiment [4] is Setaria faberi (SETFA). Kind of experiment: Post-emergence Test (glasshouse, percentage damage to the plant). The following applies: post-emergence spray, 1000 g/ha unless otherwise stated, evaluated after 13 days. In a few lines:
(§1)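 Percentage damage to the plant, assessed 13 days after application and scored 1–5 in 20% bands. Pots sown in standard soil received compound at 1000 g/ha unless otherwise stated, sprayed under 24/16 °C, 14 h light, 65% humidity.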

The test system of experiment [5] is Amaranthus retoflexus (AMARE). The description is as above. The following applies: post-emergence spray, 1000 g/ha unless otherwise stated, evaluated after 13 days. The gist of the method:
(§2)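 Seeds are sown in standard soil under controlled glasshouse conditions. The pots are then sprayed at 1000 g/ha, unless otherwise stated, with compound in acetone/water (50:50) containing 0.5% Tween 20. After 13 days further growth, percentage plant damage is scored from 1 (0-20%) to 5 (81-100%).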

The test system of experiment [6] is Solanum nigrum (SOLNI). Described as above. To be noted: post-emergence spray, 1000 g/ha unless otherwise stated, evaluated after 13 days. The gist of the method: as §2
The subject of experiment [7] is Lolium perenne (LOLPE). The description is as above. The following applies: post-emergence spray, 1000 g/ha unless otherwise stated, evaluated after 13 days. In a few lines:
as §2

Experiment [8] relates to Ipomoea hederacea (IPOHE). The experiment is described as above. To be noted: post-emergence spray, 1000 g/ha unless otherwise stated, evaluated after 13 days. In a few lines:
as §1

The subject of experiment [9] is Echinochloa crus-galli (ECHCG). The experiment is described as above. To be noted: post-emergence spray, 1000 g/ha unless otherwise stated, evaluated after 13 days. The gist of the method:
as §2

In experiment [10] the test system is Amaranthus retoflexus (AMARE). Kind of experiment: Pre-emergence Test (glasshouse, percentage damage to the plant). To be noted: 1000 g/ha unless otherwise stated, five-point scale.
Experiment [11] relates to Solanum nigrum (SOLNI). Described as above. The following applies: 1000 g/ha unless otherwise stated, five-point scale.
The subject of experiment [12] is Ipomoea hederacea (IPOHE). The description is as above. The following applies: 1000 g/ha unless otherwise stated, five-point scale.

SMILES strings stand for the structures.

With `CCn1c(C)c(-c2cncn2C)c(=O)c(C(=O)O)c1-c1ccc(Cl)c(Cl)c1` [Compound 40, 2-(3,4-dichlorophenyl)-1-ethyl-6-methyl-5-(3-methylimidazol-4-yl)-4-oxo-pyridine-3-carboxylic acid], in [1], the “percentage damage to the plant, SETFA” value is 1 (1=0-20%). Also, the “percentage damage to the plant, ECHCG” value in [2] was 1 (1=0-20%). Also, the “percentage damage to the plant, LOLPE” value in experiment [3] is on record as 1 (1=0-20%). The “Post-emergence Test SETFA, percentage damage to the plant (five-point scale)” value in experiment [4] is 1 (1=0-20%). For the same compound, the “Post-emergence Test AMARE, percentage damage to the plant (five-point scale)” value in experiment [5] is listed as 1 (1=0-20%). Further, in [6], the “Post-emergence Test SOLNI, percentage damage to the plant (five-point scale)” value was 2 (2=21-40%). Further, the “Post-emergence Test LOLPE, percentage damage to the plant (five-point scale)” value in experiment [7] is given as 1 (1=0-20%). Besides, in [8], the “Post-emergence Test IPOHE, percentage damage to the plant (five-point scale)” value was 1 (1=0-20%). In addition, the “Post-emergence Test ECHCG, percentage damage to the plant (five-point scale)” value in [9] is on record as 1 (1=0-20%). For the same compound, the “percentage damage to the plant, AMARE” value in [10] is given as 1 (1=0-20%). Moreover, in [11], the “percentage damage to the plant, SOLNI” value is 1 (1=0-20%). Moreover, in experiment [12], the “percentage damage to the plant, IPOHE” value is on record as 1 (1=0-20%).

For `CCn1c(C)c(-c2ccc(OC)nc2)c(=O)c(C(=O)O)c1-c1ccc(Cl)c(Cl)c1` [Compound 126, 2-(3,4-dichlorophenyl)-1-ethyl-5-(6-methoxy-3-pyridyl)-6-methyl-4-oxo-pyridine-3-carboxylic acid], in [1], the “percentage damage to the plant, SETFA” value is listed as 4 (4=61-80%). Moreover, the “percentage damage to the plant, ECHCG” value in experiment [2] is 2 (2=21-40%). The “percentage damage to the plant, LOLPE” value in experiment [3] was found to be 0. In addition, the “Post-emergence Test SETFA, percentage damage to the plant (five-point scale)” value in [4] is recorded as 5 (5=81-100%). The “Post-emergence Test AMARE, percentage damage to the plant (five-point scale)” value in experiment [5] is on record as 5 (5=81-100%). The “Post-emergence Test SOLNI, percentage damage to the plant (five-point scale)” value in [6] is 5 (5=81-100%). The “Post-emergence Test LOLPE, percentage damage to the plant (five-point scale)” value in experiment [7] is recorded as 2 (2=21-40%). In experiment [8], the “Post-emergence Test IPOHE, percentage damage to the plant (five-point scale)” value is on record as 4 (4=61-80%). Also, the “Post-emergence Test ECHCG, percentage damage to the plant (five-point scale)” value in [9] is reported as 4 (4=61-80%). Further, in [10], the “percentage damage to the plant, AMARE” value is listed as 5 (5=81-100%). Further, the “percentage damage to the plant, SOLNI” value in experiment [11] is given as 4 (4=61-80%). Also, the “percentage damage to the plant, IPOHE” value in experiment [12] is 3 (3=41-60%).
